In patent publication US12668568B2, “Adamantanyl-substituted benzamide compounds and their use as P2X7 receptor antagonists” (The University of Sydney, priority 2018, dated 2026):

Tested on: ATP-induced IL-1β secretion in PBMCs
Experiment: IL-1β ELISA in patient-derived PBMCs/monocytes (STEMI and controls)
Assay type: cell-based, human
Conditions: pre-incubated with 1 μmol/L compound
From the text: The role of inflammation in cardiovascular disease processes was explored. Patients that were admitted to the Royal North Shore Hospital, Sydney, Australia for clinically indicated cardiac catheterisation were consented for the study. These patients were subdivided according to their clinical presentation: • 1. Patients presenting with STEMI, characterised by recent-onset chest pain, ECG changes and/or raised cardiac enzymes. • 2. Age and sex-matched control patients with no evidence of coronary stenosis on angiography.
Patients were excluded from the study if they were taking anti-inflammatory medications, or if they had clinical or biochemical evidence of active infection or inflammation.
20 mL of blood was collected from the arterial sheath into an EDTA-coated tube. Samples were immediately diluted 1:1 in phosphate buffered saline (PBS) and layered on top of Ficoll-Paque for gradient separation. Samples were centrifuged at […] for 15 minutes. […]
Changes in secreted and intracellular levels of IL-1β were measured by ELISA (RnD systems). Samples were diluted 1 in 2 in commercial diluent, assayed according to manufacturer's instructions and detected at 450/570 nm.
Peripheral blood mononuclear cells (PBMCs) were collected from 19 STEMI patients at the time of infarct, and 3 healthy controls. […] IL-1β levels were measured by ELISA.

COc1ccc(Cl)c(C(=O)NCC23CC4(F)CC(F)(CC(F)(C4)C2)C3)c1 [Compound 1, 2-Chloro-N-((3,5,7-trifluoroadamantan-1-yl)methyl)-5-methoxybenzamide]
secreted IL-1β after ATP stimulation, STEMI PBMCs (STEMI patients' PBMCs): 13.9±2.4 | secreted IL-1β after ATP stimulation, control PBMCs (healthy controls' PBMCs): 7.5±2.8
